Assay results reported in BindingDB's records for patent US20240101551 (Chia Tai Tianqing Pharmaceutical Group, 2024).

Target: T1, Bromodomain-containing protein 4 [75-147] (Homo sapiens, UniProt O60885)
T1 construct: 75-147
Assay: In Vitro Enzymatic Activity Assay
Protocol: In the present application, the IC50 value of the compound of formula (I) in inhibiting BRD4 (BD1) enzyme binding reaction were determined by homogeneous time resolved fluorescence (HTRF). The compound of formula (I) was serially diluted 5-fold with 100% DMSO starting from 0.2 mM (7 concentrations in total), and then 2 μL of the compound of formula (I) at each concentration was added to 48 μL of a reaction buffer (20 mM HEPES pH 7.5, 150 mM NaCl, 5 mM DTT, 0.005 % Tween 20, and 100 μg/mL BSA) for dilution, and mixed well. 2.5 μL of the resulting mixture was added to a 384-well plate (OptiPlate-384, purchased from PerkinElmer), then 5 μL of GST-BRD4 (BD1, 44-168 aa) (final concentration: 1 nM) was added, and the resulting mixture was centrifuged, and fully mixed. 2.5 μL of a short peptide Biotin-AHA-SGRGK(Ac)GGK(Ac)GLGK(Ac)GGAK(Ac) RHRKV (final concentration: 100 nM) was then added to initiate the reaction (total reaction volume: 10 μL). […] After being incubated in the incubator for another 1 hour, the fluorescence values (excited at 320 nm, emitted light at 665 nm and 620 nm being detected, and the ratio of the two being the enzyme binding signal) were read on Envision (purchased from PerkinElmer).

IC50: 0.64 nM
Compound: Cn1cc(-c2nc(CS(C)(=O)=O)ccc2Oc2ccc(F)cc2F)c2cc[nH]c2c1=O [US20240101551, Compound of Formula I]
